Data: US20190055590A1, “REGULARLY ARRANGED SPHEROIDS HAVING EQUAL SIZES AND USE THEREOF” (GAIA BioMedicine Inc., priority 2016, published 2019)

Tests used:
CT26 GFP+ cells [1] = test: Tertiary screening: inhibition of spheroid formation, 2D vs 3D culture on 96 plate, ATP assay; format: cell-based; conditions: 96-well U-shaped bottom plate, pre-treatment or post-treatment
Protocol: Inoculation onto 96 Plate 1. […] 2. […] 3. […] 4. […] 5. […] 6. […] 7. […] 8. […] 1. Serially dilute a compound from the highest concentration of 20 μM at a common ratio of 1/10 for 7 doses (1% DMSO) with the medium. 2. Subsequently, add 10 μL of the serially diluted compound to the cell plate after the inoculation. 3. As for addition time of the drug, add the drug immediately after the inoculation (pre-treatment), or one day after the inoculation (post-treatment). On the final day of the evaluation, add CellTiter-Glo (registered trademark) 3D cell Viability Assay in the same volume as that of the culture volume, and 15 to 30 minutes thereafter, perform pipetting. Subsequently, transfer 120 μL of the cell lysate to Black Plate as required, and measure luminescence with a luminometer (Enspire etc.).

[2] = system: peritoneal dissemination (CT26 GFP+ cells); test: In vivo test: peritoneal dissemination after intraperitoneal transfer of CT26 GFP+ cells; set-up: species or system male BALB/c mice; conditions: mice, comparison with the vehicle group on the final day (Tukey-Kramer HSD test)
Description: 1. Use male BALB/c mice (henceforth referred to as mouse or mice, 6 to 8 weeks old at the time of use). 2. Put the mice in a plastic cage (W 136 mm×L 208 mm×H 115 mm) of which bottom is covered with a sterilized floor covering (Paper Clean, Japan SLC, Inc.) in a number of mice not larger than 5 mice per one cage until they are used for the experiments. 3. Allow the mice to ingest solid feed CRF-1 (Oriental Yeast Co., Ltd.) and tap water of water bottle ad libitum during the breeding period. 4. Perform individual identification of the mice by ear punching at the time of arrival of the mice (identification number starts from 01). 1. […] 2. […] 3. […] 4. […] 5. Inject 0.2 mL of the cell suspension into the abdominal cavity of each mouse (2.0×10^6 cells/body) by using a syringe with 26 G hypodermic needle (TERUMO CORP.). […] Spread the extracted alimentary canal on a 100-mm dish, and obtain images of the total alimentary canal in a bright field and with fluorescence by using BZ9000. […] On the last day of the evaluation, sacrifice the mice by cervical dislocation, open up the abdomen by midline incision, and collect the ascites reserved in the abdominal cavity with absorbent cotton of which weight is measured beforehand. […]

CT26 GFP+ cells [3] = conditions: 384-well plate, row with EDTA added (FIG. 1)
Protocol: 1. Proliferate CT26 GFP^+ cells to a subconfluent or confluent state, then remove the culture medium by suction, and then wash the cells with phosphate buffered saline (PBS, Invitrogen). 2. Remove PBS, then add a 0.05% trypsin solution [0.25% trypsin, 1 mmol/L EDTA•4Na (Invitrogen), diluted 5-fold with PBS], and allow the reaction under the conditions of 37° C., 5% CO2, and 95% air until cells are separated from the dish. 3. Add 10% FBS-RPMI 1640 to suspend the cells, and collect them. 4. Perform centrifugation (400 g, 3 minutes) at 4° C., and then re-suspend the precipitates (cells) in 10% FBS-RPMI 1640. 5. Mix a part of the cell suspension with 0.4% trypan blue solution (Sigma-Aldrich), and count live cells under a phase contrast microscope by using a cell counting plate (OneCell Counter, OneCell Inc.). 6. In the case of 2D culture, dilute the cell suspension with 10% FBS-0.1% DMSO-RPMI 1640 to 3.0×10^4 cells/mL, and inoculate the cells on a culture plate (ViewPlate-384, PerkinElmer) in a volume of 20 μL/well using BIOMEK (registered trademark) NXP (BECKMAN COULTER). 7. […]
1. Observe morphology of the spheroids by 2 types of methods, in a bright field and with fluorescence, by using IN Cell Analyzer 2000 (GE Healthcare) 72 Hours after the treatment with the drug. […] Evaluate the spheroids on the basis of the total fluorescence amount (density×area) obtained from GFP as an index. […]

Row | SMILES | ability to inhibit spheroid formation (CT26 GFP+ cells [1]) | effect on peritoneal dissemination (fluorescence amount emitted from the alimentary canal extracted on the last evaluation day) ([2]; FIG. 6) | effect on peritoneal dissemination (weight of the ascites collected on the last evaluation day) ([2]; FIG. 7) | spheroid formation (CT26 GFP+ cells [3])
1 | O=C(NOC[C@H](O)CO)c1ccc(F)c(F)c1Nc1ccc(I)cc1F [PD0325901] | high ability to inhibit spheroid formation | confirmed in vivo | confirmed in vivo | –
2 | O=C(O)CN(CCN(CC(=O)O)CC(=O)O)CC(=O)O [EDTA] | – | – | – | no spheroid formation
